Data from patent US20250032486A1, “COMBINATION OF 5-AMINO-2,3-DIHYDRO-1,4-PHTALAZINEDIONE AND A 6'-METHOXYCINCHONAN-9-OL FOR USE IN THE TREATMENT OF CORONAVIRAL INFECTIONS” (METROPHARM AG, priority 2021, published 2025).
Where a name gives a salt, the structure may show the parent alone. Read-outs that look alike come from different tables or passages of the source.

Experiments:
[1] = system: SARS-CoV-2; details: from WO 2021/249667 and WO 2021/219244; cited from earlier work
[2] = system: 3-nitrotyrosine; details: ex vivo lung, cigarette smoke; cited from earlier work
[3] = system: SARS-CoV-2; format: cell-based

Structure (SMILES): Nc1cccc2c(=O)[nH][nH]c(=O)c12.[Na] [5-amino-2,3-dihydro-1,4-phthalazinedione sodium salt]
- inhibition of the replication of SARS-CoV-2 in vitro [1]: dose-dependently inhibit
- reduction of 3-nitrotyrosine [2]: nearly complete reduction
- amount of SARS-CoV-2 RNA copies (qRT-PCR-amplified RdRp, in relation to untreated cells) [3]: dose-dependent reduction

Structure (SMILES): C=C[C@H]1C[N@@]2CC[C@H]1C[C@@H]2[C@@H](O)c1ccnc2ccc(OC)cc12 [quinidine sulfate]
- amount of SARS-CoV-2 RNA copies (qRT-PCR-amplified RdRp, in relation to untreated cells) ([3]; Example 3, Calu-3 cells, 3 days, luminol sodium salt 500/250/125 μM, quinidine sulfate 10/1/0.1 μM, alone and combined, n=2): dose-dependent reduction

Structure (SMILES): C=C[C@H]1CN2CC[C@H]1C[C@@H]2[C@@H](O)c1ccnc2ccc(OC)cc12 [quinidine, (+)-(9S)-6′-methoxycinchonan-9-ol]
- inhibition of the replication of SARS-CoV-2 in vitro [1]: Such an effect was also described

Structure (SMILES): C=C[C@H]1C[N@@]2CC[C@H]1C[C@H]2[C@H](O)c1ccnc2ccc(OC)cc12 [quinine sulfate]
- amount of SARS-CoV-2 RNA copies (qRT-PCR-amplified RdRp, in relation to untreated cells) ([3]; Example 1, Calu-3 cells, 3 days, luminol sodium salt 500/250/125 μM, quinine sulfate 10/1/0.1 μM, alone and combined, n=3): dose-dependent reduction

Structure (SMILES): C=C[C@H]1CN2CC[C@H]1C[C@H]2[C@H](O)c1ccnc2ccc(OC)cc12 [quinine, (−)-(8a,9R)-6′-methoxycinchonan-9-ol]
- inhibition of the replication of SARS-CoV-2 in vitro [1]: Such an effect was also described
